# Assay results: US20170114029A1, “TREATMENT OF CHAGAS DISEASE” (UNIVERSITY OF DUNDEE, priority 2014, published 2017)
# Tested on: T. cruzi Tulahuen strain C2C4
# Experiment: Activity against T. cruzi (beta-galactosidase expressing parasites in L-6 cells)
# Assay type: cell-based, Trypanosoma cruzi
# Conditions: Trypanosoma cruzi, TULAHUEN, L6, Benznidazole used as control, same assay; read-out: IC50 of control
# Description: Activity against T. cruzi. Rat skeletal myoblasts (L-6 cells) were seeded in 96-well microtitre plates at 2000 cells/well in 100 μL RPMI 1640 medium with 10% FBS and 2 mM 1-glutamine. After 24 h the medium was removed and replaced by 100 μl per well containing 5000 trypomastigote forms of T. cruzi Tulahuen strain C2C4 containing the […] (Lac Z) gene (Buckner et al. 1996). After 48 h the medium was removed from the wells and replaced by 100 μl fresh medium with or without a serial drug dilution of eleven 3-fold dilution steps covering a range from 100 to 0.002 μg/ml. After 96 h of incubation the plates were inspected under an inverted microscope to assure growth of the controls and sterility. Then the substrate CPRG/Nonidet (50 μl) was added to all wells. A color reaction developed within 2-6 h and could be read photometrically at 540 nm. Data were analyzed with the graphic programme Softmax Pro (Molecular Devices), which calculated IC50 values by linear regression (Huber 1993) from the sigmoidal dose inhibition curves. Benznidazole is used as control (IC50 0.5±0.2 ug/ml). • Buckner, F. S., C. L. Verlinde, A. C. La Flamme, and W. C. Van Voorhis. 1996. Efficient technique for screening drugs for activity against Trypanosoma cruzi using parasites expressing beta-galactosidase, p. 2592-2597, vol. 40. • Huber, W. Koella, J. C. 1993. A comparison of the three methods of estimating EC50 in studies of drug resistance of malaria parasites. Acta Trop. 55, 257-261.
row,Compound,IC50 [µg/mL]
1,"O=C(Cn1ccnc1[N+](=O)[O-])NCc1ccccc1 [Benznidazole, reference compound]",0.5 ± 0.2

# Same assay, conditions: Trypanosoma cruzi, TULAHUEN, L6, in Rattus norvegicus, 96 h, trypomastigotes in rat skeletal myoblasts (L-6 cells), 96 h incubation, CPRG/Nonidet read at 540 nm; read-out: Activity (IC50)
row,Compound,IC50 [µg/mL]
1,"CC[C@H]1CC[C@@H](n2c(=O)[nH]c3ccc(N)cc3c2=O)CC1 [24 (cis), 6-Amino-3-(cis-4-ethyl-cyclohexyl)-1H-quinazoline-2,4-dione]",0.096
2,"CC(=O)Nc1cnc2[nH]c(=O)n(CCC3CCCCC3)c(=O)c2c1 [Example 39, N-(3-(2-cyclohexylethyl)-2,4-dioxo-1,2,3,4-tetrahydropyrido[2,3-d]pyrimidin-6-yl)acetamide]",0.755
3,"CCC1CCC(n2c(=O)[nH]c3ccc(N)cc3c2=O)CC1 (racemic) [24 (rac), 6-Amino-3-(4-ethyl-cyclohexyl)-1H-quinazoline-2,4-dione]",0.022
4,"CC(=O)Nc1cnc2[nH]c(=O)n([C@H]3CC[C@H](C(C)(C)C)CC3)c(=O)c2c1 [Example 33, N-[3-(trans-4-tert-Butyl-cyclohexyl)-2,4-dioxo-1,2,3,4-tetrahydro-pyrido[2,3-d]pyrimidin-6-yl]-acetamide]",0.196
5,"CC(C)(C)[C@H]1CC[C@@H](n2c(=O)[nH]c3ccc(N)cc3c2=O)CC1 [23b (cis), 6-amino-3-(cis-4-tert-butyl-cyclohexyl)-1H-quinazoline-2,4-dione]",0.007
6,"CC(=O)Nc1ccc2[nH]c(=O)n([C@H]3CC[C@H](C(C)(C)C)CC3)c(=O)c2c1 [Example 49, N-(3-((1r,4r)-4-(tert-butyl)cyclohexyl)-2,4-dioxo-1,2,3,4-tetrahydroquinazolin-6-yl)acetamide]",0.008
7,"O=c1[nH]c2ccc(-c3ccncc3)cc2c(=O)n1CCC1CCCCC1 [Example 19, 3-(2-Cyclohexylethyl)-6-(pyridin-4-yl)quinazoline-2,4(1H,3H)-dione]",0.605
8,"CCC[C@H]1CC[C@H](n2c(=O)[nH]c3ccc(NC(C)=O)cc3c2=O)CC1 [Example 58, N-(2,4-Dioxo-3-((1s,4r)-4-propylcydohexyl)-1,2,3,4-tetrahydroquinazolin-6-yl)acetamide]",0.007
9,"CC(=O)Nc1ccc2[nH]c(=O)n(C3CCCCCC3)c(=O)c2c1 [Example 46, N-(3-Cycloheptyl-2,4-dioxo-1,2,3,4-tetrahydro-quinazolin-6-yl)acetamide]",0.661
10,"CC(=O)Nc1ccc2[nH]c(=O)n(C(CC3CCCCC3)C(N)=O)c(=O)c2c1 (stereo not drawn) [Example 7, 2-(6-Acetamido-2,4-dioxo-1,4-dihydroquinazolin-3(2H)-yl)-3-cyclohexylpropanamide]",63.6
11,"CC(C)(C)[C@H]1CC[C@@H](n2c(=O)[nH]c3ncc(N)cc3c2=O)CC1 [Example 27, 6-Amino-3-((1 S,4S)-4-(tert-butyl)-cyclohexyl)pyrido[2,3-d]pyrimidine-2,4(1H.3H)-dione]",0.289
12,"CCOC(=O)Nc1ccc2c(c1)c(=O)n(CCC1CCCCC1)c(=O)n2CC [Example 13c, Ethyl (3-(2-cyclohexylethyl)-1-ethyl-2,4-dioxo-1,2,3,4-tetrahydroquinazolin-6-yl)carbamate]",5.23
13,"CC(=O)Nc1ccc2[nH]c(=O)n([C@H]3CC[C@@H](C(C)C)CC3)c(=O)c2c1 [Example 47, N-(3-((1s,4s)-4-Isopropylcyclohexyl)-2,4-dioxo-1,2,3,4-tetrahydroquinazolin-6-yl)acetamide]",0.087
14,"CC[C@H]1CC[C@H](n2c(=O)[nH]c3ccc(NC(C)=O)cc3c2=O)CC1 [Example 56, N-(3-((1r,4r)-4-Ethylcyclohexyl)-2,4-dioxo-1,2,3,4-tetrahydroquinazolin-6-yl)acetamide]",0.015
15,"O=C(Nc1ccc2[nH]c(=O)n(CCC3CCCCC3)c(=O)c2c1)c1ccccc1 [Example 14c, N-(3-(2-Cyclohexylethyl)-2,4-dioxo-1,2,3,4-tetrahydroquinazolin-6-yl)benzamide]",5.88
16,"O=c1[nH]c2ccc(-c3cncnc3)cc2c(=O)n1CCC1CCCCC1 [Example 18, 3-(2-Cyclohexylethyl)-6-(pyrimidin-5-yl)quinazoline-2,4(1H,3H)-dione]",4.93
17,"CC(=O)N(C)c1ccc2c(c1)c(=O)n(CCC1CCCCC1)c(=O)n2C [Example 11, N-(3-(2-cyclohexylethyl)-1-methyl-2,4-dioxo-1,2,3,4-tetrahydroquinazolin-6-yl)-N-methylacetamide]",6.44
18,"CC(C)(C)[C@H]1CC[C@H](n2c(=O)[nH]c3ccc(N)cc3c2=O)CC1 [23b (trans), 6-amino-3-(trans-4-tert-butyl-cyclohexyl)-1H-quinazoline-2,4-dione]",0.03
19,"CC(=O)Nc1ccc2[nH]c(=O)n(C3CCC(C(C)(C)C)C3)c(=O)c2c1 (stereo not drawn) [Example 60, N-(3-(3-(Tert-butyl)cyclopentyl)-2,4-dioxo-1,2,3,4-tetrahydroquinazolin-6-yl)acetamide]",0.007
20,"CC(=O)Nc1ccc2[nH]c(=O)n(C3C4CC5CC(C4)CC3C5)c(=O)c2c1 (stereo not drawn) [Example 51, N-(3-((1r,3r,5r,7r)-adamantan-2-yl)-2,4-dioxo-1,2,3,4-tetrahydroquinazolin-6-yl)acetamide]",0.178
21,"CC(=O)Nc1ccc2[nH]c(=O)n(CCCN3CCOCC3)c(=O)c2c1 [Example 40, N-(3-(3-Morpholinopropyl)-2,4-dioxo-1,2,3,4-tetrahydroquinazolin-6-yl)acetamide]",55.3
22,"CC(=O)Nc1ccc2[nH]c(=O)n(CCC(C)C)c(=O)c2c1 [Example 4, N-(3-Isopentyl-2,4-dioxo-1,2,3,4-tetrahydroquinazolin-6-yl)acetamide]",2.81
23,"CC(C)(C)C(=O)Nc1ccc2[nH]c(=O)n(CCC3CCCCC3)c(=O)c2c1 [Example 15b, N-(3-(2-cyclohexylethyl)-2,4-dioxo-1,2,3,4-tetrahydroquinazolin-6-yl)pivalamide]",2.64
24,"CC(=O)Nc1cnc2[nH]c(=O)n([C@H]3CC[C@@H](C(C)(C)C)CC3)c(=O)c2c1 [Example 34, N-[3-(cis-4-tert-Butyl-cyclohexyl)-2,4-dioxo-1,2,3,4-tetrahydro-pyrido[2,3-d]pyrimidin-6-yl)-acetamide]",0.36
25,"CC(=O)Nc1ccc2[nH]c(=O)n(C3CCC(C)CC3)c(=O)c2c1 (stereo not drawn) [Example 59, N-(3-(4-methylcyclohexyl)-2,4-dioxo-1,2,3,4-tetrahydroquinazolin-6-yl)acetamide]",0.329
26,"CC(=O)Nc1ccc2[nH]c(=O)n([C@H]3CCO[C@@H](C(C)(C)C)C3)c(=O)c2c1 [Example 61, N-(3-((2R,4S)-2-(Tert-butyl)tetrahydro-2H-pyran-4-yl)-2,4-dioxo-1,2,3,4-tetrahydroquinazolin-6-yl)acetamide]",0.744
27,"CC[C@H]1CC[C@H](n2c(=O)[nH]c3ccc(N)cc3c2=O)CC1 [24 (trans), 6-Amino-3-(trans-4-ethyl-cyclohexyl)-1H-quinazoline-2,4-dione]",0.035
28,"CC(=O)Nc1ccc2[nH]c(=O)n([C@H]3CC[C@@H](C(C)(C)C)CC3)c(=O)c2c1 [Example 50, N-(3-((1s,4s)-4-(Tert-butyl)cyclohexyl)-2,4-dioxo-1,2,3,4-tetrahydroquinazolin-6-yl)acetamide]",0.005

# Same assay, conditions: trypomastigotes in rat skeletal myoblasts (L-6 cells), 96 h incubation, CPRG/Nonidet read at 540 nm
row,Compound,Activity (IC50) [µg/mL]
1,"CCC1CCC(n2c(=O)[nH]c3ncc(NC(C)=O)cc3c2=O)CC1 (stereo not drawn) [Example 36, N-(3-((1s,4s)-4-ethylcyclohexyl)-2,4-dioxo-1,2,3,4-tetrahydropyrido[2,3-d]pyrimidin-6-yl)acetamide]",0.110
